Earlier results as cited in US20110144044A1, “Composition and method for increasing post workout recovery” (priority 2009, published 2011).

Tests used:
rats = details: CNS administration
[1] = after caffeine ingestion 6 mg/kg, intense exercise

SMILES	muscle lactate concentration (subjects; [1])	net muscle glycogenolysis (subjects; [1])	plasma epinephrine concentration (subjects; [1])	endurance (subjects; caffeine 6 mg/kg ingested vs placebo, cycling to voluntary exhaustion)	increase in treadmill run time to fatigue (rats)	run time to fatigue (rats)
Cn1c(=O)c2c(ncn2C)n(C)c1=O [caffeine]	increased	unaffected	increased	significant increase in endurance	approximately 60%	–
CCNC(=O)[C@H]1O[C@@H](n2cnc3c(N)ncnc32)[C@H](O)[C@@H]1O [NECA, 5′-N-ethylcarboxamidoadenosine]	–	–	–	–	–	significantly reduced run time to fatigue
